Measurements as given in ChEMBL document CHEMBL1201862, “PubChem BioAssay data set” (2004).
Activity calls are given as the source filed them.

Assays:
cells [1] = type: functional
[2] = A Cell Based Secondary Assay to Explore Cytotoxicity in THP-1 Cells of Compounds that Modulate Mycobacterium tuberculosis in Media Containing Glycerol versus Media without Glycerol (2).; type: functional
[3] = target: Ras and Rab interactor 1/Tyrosine-protein kinase ABL1 (Homo sapiens, UniProt P00519+Q13671); type: functional;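 further: biochemical TR-FRET dose-response test measuring inhibition of binding between Rin1 and Abl proteins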
Nonstructural protein 1 = Nonstructural protein 1 (Influenza A virus, UniProt Q194T2); type: functional, Influenza A virus (A/California/07/2009(H1N1))
Insulin-degrading enzyme [4] = target: T1, Insulin-degrading enzyme (Homo sapiens, UniProt P14735); test: cellular IDE activation of Abeta substrate cleavage – fluorescence polarization, HEK cells, dose response (AID 588439); type: functional, cell-based
T1 sequence (P14735 whole entry): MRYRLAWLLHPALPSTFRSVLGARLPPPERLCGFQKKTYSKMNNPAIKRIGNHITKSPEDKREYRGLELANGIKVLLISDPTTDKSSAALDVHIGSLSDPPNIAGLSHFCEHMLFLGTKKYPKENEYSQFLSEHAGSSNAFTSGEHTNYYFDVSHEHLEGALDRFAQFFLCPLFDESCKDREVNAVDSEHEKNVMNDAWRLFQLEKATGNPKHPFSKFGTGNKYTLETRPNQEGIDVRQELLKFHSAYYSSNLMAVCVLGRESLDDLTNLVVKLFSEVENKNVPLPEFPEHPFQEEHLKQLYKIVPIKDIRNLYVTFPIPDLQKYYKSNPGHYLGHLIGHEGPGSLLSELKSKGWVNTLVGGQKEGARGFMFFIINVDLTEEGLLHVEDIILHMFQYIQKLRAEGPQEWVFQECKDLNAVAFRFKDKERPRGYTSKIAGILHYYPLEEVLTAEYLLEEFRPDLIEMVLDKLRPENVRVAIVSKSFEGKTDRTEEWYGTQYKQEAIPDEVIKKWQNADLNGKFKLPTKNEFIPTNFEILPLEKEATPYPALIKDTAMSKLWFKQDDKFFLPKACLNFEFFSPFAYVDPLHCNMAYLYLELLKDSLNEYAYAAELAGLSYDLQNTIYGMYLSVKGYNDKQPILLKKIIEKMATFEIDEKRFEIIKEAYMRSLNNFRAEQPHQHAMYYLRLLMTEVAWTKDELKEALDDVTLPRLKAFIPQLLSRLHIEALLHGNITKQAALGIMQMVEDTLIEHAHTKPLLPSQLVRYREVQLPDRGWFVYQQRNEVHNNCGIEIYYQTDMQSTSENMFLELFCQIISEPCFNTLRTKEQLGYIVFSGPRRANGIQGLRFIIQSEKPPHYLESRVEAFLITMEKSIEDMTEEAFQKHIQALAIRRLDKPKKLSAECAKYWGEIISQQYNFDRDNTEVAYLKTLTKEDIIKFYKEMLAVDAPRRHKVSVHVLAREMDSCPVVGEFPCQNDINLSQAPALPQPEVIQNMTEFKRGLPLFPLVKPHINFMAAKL

[5] = target: T2, Histone-lysine N-methyltransferase NSD2 (Homo sapiens, UniProt O96028); type: biochemical
T2 sequence (O96028 whole entry): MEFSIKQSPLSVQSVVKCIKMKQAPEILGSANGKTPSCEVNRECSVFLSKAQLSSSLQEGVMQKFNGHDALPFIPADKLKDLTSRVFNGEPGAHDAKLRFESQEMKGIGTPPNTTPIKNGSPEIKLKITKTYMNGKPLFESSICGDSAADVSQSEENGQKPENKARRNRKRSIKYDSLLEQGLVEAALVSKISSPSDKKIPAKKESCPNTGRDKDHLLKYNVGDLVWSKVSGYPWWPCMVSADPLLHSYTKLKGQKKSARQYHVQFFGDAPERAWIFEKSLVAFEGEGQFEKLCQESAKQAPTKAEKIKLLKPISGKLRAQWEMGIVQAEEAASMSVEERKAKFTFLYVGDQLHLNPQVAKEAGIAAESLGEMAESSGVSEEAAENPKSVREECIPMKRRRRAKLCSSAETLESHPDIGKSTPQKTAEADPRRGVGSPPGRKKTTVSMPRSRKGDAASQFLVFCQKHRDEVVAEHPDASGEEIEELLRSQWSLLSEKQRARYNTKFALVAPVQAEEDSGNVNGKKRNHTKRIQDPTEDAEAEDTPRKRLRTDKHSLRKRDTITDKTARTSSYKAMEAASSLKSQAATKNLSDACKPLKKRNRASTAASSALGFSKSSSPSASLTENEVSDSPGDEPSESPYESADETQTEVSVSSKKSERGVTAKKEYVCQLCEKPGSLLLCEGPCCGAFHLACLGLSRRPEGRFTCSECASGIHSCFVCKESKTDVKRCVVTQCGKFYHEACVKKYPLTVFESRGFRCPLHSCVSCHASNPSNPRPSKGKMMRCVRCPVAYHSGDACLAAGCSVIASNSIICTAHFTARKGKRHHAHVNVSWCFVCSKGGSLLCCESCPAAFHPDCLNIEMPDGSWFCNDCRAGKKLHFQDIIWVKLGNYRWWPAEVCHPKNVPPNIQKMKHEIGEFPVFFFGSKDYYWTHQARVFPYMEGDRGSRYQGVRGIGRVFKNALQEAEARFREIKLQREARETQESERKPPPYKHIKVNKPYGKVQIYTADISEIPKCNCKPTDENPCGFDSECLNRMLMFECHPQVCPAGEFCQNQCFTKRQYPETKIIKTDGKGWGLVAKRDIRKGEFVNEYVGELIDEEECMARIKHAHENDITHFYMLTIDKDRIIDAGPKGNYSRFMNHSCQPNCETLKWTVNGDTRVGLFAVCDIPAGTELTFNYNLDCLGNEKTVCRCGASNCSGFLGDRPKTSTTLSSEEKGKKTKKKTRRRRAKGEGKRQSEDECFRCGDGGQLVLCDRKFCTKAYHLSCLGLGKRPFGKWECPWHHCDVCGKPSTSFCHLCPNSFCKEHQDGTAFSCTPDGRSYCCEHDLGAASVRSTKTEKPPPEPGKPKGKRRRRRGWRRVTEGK

Insulin-degrading enzyme [6] = target: T1, Insulin-degrading enzyme; test: recombinant IDE activation, cell-free – biochemical, fluorescence polarization, counter-screen for IDE activator project, dose response (AID 588681)
[7] = target: Potassium voltage-gated channel subfamily KQT member 2 (Rattus norvegicus, UniProt O88943); test: blockers of KCNQ2 channel current – cell-based, automated electrophysiology, set II, rat KCNQ2, dose response (AID 588637); type: functional
[8] = target: G-protein coupled receptor 55 (Homo sapiens, UniProt Q9Y2T6); test: inhibition of LPI-stimulated GPR55 beta-arrestin translocation – imaging, U2OS, beta-arrestin-GFP, LPI agonist, primary screen (AID 2013); type: functional;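 further: antagonist potency measured as reduced agonist-driven arrestin aggregation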
[9] = target: 26S proteasome non-ATPase regulatory subunit 14 (Homo sapiens, UniProt O00487); test: inhibition of proteasome subunit RPN11 – biochemical, fluorescence polarization, uHTS hits, confirmation (AID 602368); type: functional
[10] = target: T3, Microphthalmia-associated transcription factor (Homo sapiens, UniProt O75030); test: reducers of TRPM1 reporter luminescence, concentration series – cell-based, SK-MEL-5, cherry-picked, set 3, MITF inhibitor project, dose response (AID 493073); type: functional;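 further: SK-MEL-5 melanoma cells with luciferase driven by the MITF target TRPM1 promoter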
T3 sequence (O75030 whole entry): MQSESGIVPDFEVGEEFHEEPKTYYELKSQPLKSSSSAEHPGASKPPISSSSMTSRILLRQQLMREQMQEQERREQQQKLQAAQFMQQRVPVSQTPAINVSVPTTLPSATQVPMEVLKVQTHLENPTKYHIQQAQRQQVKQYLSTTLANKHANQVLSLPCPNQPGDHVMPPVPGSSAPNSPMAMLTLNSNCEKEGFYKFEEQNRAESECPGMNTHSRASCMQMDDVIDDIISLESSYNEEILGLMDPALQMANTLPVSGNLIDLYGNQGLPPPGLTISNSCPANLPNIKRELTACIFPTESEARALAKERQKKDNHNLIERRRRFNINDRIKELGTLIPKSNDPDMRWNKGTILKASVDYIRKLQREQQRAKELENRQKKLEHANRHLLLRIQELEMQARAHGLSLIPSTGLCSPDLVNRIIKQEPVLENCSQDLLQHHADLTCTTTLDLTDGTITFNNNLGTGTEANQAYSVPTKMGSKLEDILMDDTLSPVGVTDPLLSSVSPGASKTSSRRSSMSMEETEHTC

Prothrombin = Prothrombin (Bos taurus, UniProt P00735); test: thrombin protease inhibitors – biochemical, fluorescence polarization, uHTS hits, dose response (AID 602369); type: functional
HEK293 [11] = test: cells; settings: Homo sapiens
[12] = target: T4, DNA repair protein RAD52 homolog (Homo sapiens, UniProt P43351); type: functional, biochemical
T4 sequence (P43351 whole entry): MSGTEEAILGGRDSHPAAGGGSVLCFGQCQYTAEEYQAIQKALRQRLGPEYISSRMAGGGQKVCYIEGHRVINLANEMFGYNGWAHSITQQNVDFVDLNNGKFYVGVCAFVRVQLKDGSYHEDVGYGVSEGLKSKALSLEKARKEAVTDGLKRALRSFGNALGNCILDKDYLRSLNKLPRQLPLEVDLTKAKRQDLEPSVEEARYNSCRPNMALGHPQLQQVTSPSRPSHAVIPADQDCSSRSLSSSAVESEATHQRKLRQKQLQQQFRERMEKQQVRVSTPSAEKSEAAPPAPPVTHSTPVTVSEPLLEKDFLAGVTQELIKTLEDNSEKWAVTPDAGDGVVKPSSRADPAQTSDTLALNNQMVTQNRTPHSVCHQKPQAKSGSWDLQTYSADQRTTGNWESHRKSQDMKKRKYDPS

[13] = target: DNA (cytosine-5)-methyltransferase 1 (Homo sapiens, UniProt P26358); test: inhibition of DNA methylation by DNMT1 – biochemical, fluorescent molecular beacon, confirmation (AID 602386); type: functional
HEK293 [14] = test: cells; settings: Homo sapiens; remark: listed apart in the source
[15] = target: T5, Oxysterols receptor LXR-beta (Homo sapiens, UniProt P55055); type: functional, cell-based;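 further: Cell-based luminescence dose-response assay of agonist activity at LXR, run as a confirmatory counterscreen to a daf-12 agonist screen; HEK293 cells with Gal4-LXR fusion and GAL4-driven luciferase reporter; agonist potency from rising luciferase signal of a Gal4-LXR reporter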
T5 sequence (P55055 whole entry): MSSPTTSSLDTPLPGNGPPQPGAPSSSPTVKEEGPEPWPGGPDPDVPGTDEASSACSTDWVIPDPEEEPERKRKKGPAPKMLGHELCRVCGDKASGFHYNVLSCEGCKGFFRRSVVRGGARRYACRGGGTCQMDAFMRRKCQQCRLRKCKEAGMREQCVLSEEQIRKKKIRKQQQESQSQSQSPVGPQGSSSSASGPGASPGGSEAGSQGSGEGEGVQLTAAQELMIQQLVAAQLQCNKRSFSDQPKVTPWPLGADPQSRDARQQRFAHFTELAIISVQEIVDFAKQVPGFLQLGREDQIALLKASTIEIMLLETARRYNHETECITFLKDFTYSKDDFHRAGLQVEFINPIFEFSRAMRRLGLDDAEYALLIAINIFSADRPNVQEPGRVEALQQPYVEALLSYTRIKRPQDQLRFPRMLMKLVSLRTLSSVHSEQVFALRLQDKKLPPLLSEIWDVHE

[16] = Trypanosoma cruzi growth suppression in host cells – NIH3T3 host cells, beta-gal luminescence, confirmation (AID 2044); type: functional, cell-based;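 further: intracellular parasites grown in NIH/3T3 mouse fibroblasts as host cells; luminescent beta-galactosidase reporter signal from transgenic T. cruzi replicating inside host cells; inhibitors lower the luminescence signal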
INS1 = test: INS-1E survival protection against cytokine death – cell-based, luminescence, retest, dose response (AID 449756); type: functional; settings: Rattus norvegicus;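 further: cell death triggered by IL-1 beta plus TNF-alpha plus IFN-gamma mixture; protective hits raise ATP signal compared with cytokine alone wells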
cells [17] = test: cells
A-375 = test: proliferation inhibition in MITF-low A375 cells – cell-based, cherry-pick samples, set 2, counter-screen for MITF modulator project, dose response (AID 540335); type: functional; settings: Homo sapiens
[18] = target: 72 kDa type IV collagenase (Homo sapiens, UniProt P08253); test: Dose Response validation of uHTS RPN11 inhibitor hits using a MMP-2 Fluorescence assay.; type: functional
[19] = target: Adenosylmethionine-8-amino-7-oxononanoate aminotransferase (Mycobacterium tuberculosis, UniProt P9WQ81); test: Mycobacterium tuberculosis BioA enzyme inhibitor Measured in Biochemical System Using Plate Reader - 2163-02_Inhibitor_Dose_CherryPick_Activity.; type: functional, Mycobacterium tuberculosis UT205
[20] = target: T6, Low molecular weight phosphotyrosine protein phosphatase (Homo sapiens, UniProt P24666); type: functional; settings: read-out: IC50_Mean
T6 sequence (P24666 whole entry): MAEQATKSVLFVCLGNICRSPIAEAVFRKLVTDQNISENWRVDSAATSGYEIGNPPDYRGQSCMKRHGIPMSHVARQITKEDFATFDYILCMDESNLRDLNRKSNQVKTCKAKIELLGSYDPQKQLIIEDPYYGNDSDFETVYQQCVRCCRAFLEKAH

[21] = target: T6, Low molecular weight phosphotyrosine protein phosphatase; type: functional; settings: read-out: IC50_Mean; remark: listed apart in the source

Adenosylmethionine-8-amino-7-oxononanoate aminotransferase, sequence (P9WQ81 whole entry): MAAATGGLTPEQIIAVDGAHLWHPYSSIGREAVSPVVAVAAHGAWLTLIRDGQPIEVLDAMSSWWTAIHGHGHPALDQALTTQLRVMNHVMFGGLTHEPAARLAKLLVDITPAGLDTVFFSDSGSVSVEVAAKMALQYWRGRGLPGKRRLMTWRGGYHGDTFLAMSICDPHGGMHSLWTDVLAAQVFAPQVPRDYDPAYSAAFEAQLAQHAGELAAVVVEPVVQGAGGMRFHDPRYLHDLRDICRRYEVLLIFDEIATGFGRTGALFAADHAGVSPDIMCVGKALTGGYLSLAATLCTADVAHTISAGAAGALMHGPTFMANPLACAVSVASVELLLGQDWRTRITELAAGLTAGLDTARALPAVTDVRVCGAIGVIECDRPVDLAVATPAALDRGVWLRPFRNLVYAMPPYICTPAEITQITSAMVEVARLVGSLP
Ras and Rab interactor 1/Tyrosine-protein kinase ABL1, sequence (P00519 whole entry): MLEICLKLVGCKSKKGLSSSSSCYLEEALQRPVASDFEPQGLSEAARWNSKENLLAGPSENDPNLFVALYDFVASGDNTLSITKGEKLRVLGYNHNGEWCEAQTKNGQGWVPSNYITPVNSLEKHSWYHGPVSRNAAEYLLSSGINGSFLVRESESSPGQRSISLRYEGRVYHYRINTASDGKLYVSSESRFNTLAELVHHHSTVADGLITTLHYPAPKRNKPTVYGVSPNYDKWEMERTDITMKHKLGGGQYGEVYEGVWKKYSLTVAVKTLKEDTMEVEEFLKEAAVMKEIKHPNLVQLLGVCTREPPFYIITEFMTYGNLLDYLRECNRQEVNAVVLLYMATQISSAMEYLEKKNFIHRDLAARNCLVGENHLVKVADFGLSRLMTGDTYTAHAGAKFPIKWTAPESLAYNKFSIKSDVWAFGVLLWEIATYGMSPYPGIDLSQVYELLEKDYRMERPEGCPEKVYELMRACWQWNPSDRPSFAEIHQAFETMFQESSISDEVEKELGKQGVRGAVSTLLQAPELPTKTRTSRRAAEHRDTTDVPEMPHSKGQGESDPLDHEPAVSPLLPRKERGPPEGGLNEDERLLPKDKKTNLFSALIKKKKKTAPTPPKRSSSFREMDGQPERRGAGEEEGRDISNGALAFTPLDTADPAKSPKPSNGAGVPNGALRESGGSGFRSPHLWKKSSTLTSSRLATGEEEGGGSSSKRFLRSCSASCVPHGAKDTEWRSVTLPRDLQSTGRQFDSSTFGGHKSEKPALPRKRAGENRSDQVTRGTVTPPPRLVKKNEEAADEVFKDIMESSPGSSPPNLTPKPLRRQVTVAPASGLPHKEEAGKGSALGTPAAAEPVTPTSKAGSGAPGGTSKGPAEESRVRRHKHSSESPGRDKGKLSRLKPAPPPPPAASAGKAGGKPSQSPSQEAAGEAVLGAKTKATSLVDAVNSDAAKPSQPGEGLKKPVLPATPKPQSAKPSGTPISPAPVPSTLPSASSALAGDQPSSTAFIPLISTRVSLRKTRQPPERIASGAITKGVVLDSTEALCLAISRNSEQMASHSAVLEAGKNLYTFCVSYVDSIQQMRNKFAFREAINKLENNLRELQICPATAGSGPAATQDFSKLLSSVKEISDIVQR
Ras and Rab interactor 1/Tyrosine-protein kinase ABL1, sequence (Q13671 whole entry): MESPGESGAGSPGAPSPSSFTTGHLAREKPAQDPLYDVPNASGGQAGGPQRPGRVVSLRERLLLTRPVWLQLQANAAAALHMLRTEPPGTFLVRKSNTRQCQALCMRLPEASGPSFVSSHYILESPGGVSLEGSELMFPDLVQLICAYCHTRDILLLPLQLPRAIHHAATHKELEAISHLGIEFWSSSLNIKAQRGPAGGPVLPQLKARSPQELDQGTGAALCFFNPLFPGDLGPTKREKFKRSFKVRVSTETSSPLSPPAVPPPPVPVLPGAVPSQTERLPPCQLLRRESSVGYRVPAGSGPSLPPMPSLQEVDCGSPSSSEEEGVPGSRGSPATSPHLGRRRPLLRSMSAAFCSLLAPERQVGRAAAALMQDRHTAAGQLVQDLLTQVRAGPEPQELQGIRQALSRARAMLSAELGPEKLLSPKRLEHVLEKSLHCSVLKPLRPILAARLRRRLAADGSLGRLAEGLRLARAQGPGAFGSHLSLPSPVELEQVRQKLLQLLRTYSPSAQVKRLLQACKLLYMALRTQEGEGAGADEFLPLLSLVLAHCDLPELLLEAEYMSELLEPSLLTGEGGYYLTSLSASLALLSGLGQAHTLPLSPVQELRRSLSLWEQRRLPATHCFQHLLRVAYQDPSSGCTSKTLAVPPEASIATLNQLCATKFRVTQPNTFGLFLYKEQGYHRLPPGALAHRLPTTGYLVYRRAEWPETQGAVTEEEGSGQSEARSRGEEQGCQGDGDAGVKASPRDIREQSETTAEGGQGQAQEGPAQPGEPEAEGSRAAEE
72 kDa type IV collagenase, sequence (P08253 whole entry): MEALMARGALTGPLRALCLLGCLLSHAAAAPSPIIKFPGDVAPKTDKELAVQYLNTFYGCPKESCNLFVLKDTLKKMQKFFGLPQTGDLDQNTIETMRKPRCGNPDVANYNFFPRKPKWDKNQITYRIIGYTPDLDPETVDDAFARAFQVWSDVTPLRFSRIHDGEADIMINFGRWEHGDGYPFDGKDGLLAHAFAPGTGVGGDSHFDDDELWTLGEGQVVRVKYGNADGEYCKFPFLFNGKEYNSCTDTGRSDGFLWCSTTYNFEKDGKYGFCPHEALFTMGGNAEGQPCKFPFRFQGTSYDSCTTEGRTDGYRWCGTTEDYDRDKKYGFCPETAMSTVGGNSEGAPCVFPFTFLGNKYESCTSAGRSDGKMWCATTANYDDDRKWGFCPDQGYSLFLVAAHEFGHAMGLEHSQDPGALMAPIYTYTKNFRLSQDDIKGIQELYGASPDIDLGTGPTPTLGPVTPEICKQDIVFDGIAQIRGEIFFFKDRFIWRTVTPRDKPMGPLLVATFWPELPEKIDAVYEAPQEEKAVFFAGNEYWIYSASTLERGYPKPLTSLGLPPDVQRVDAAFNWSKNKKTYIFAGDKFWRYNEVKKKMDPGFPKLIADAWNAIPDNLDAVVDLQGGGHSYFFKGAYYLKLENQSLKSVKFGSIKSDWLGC
G-protein coupled receptor 55, sequence (Q9Y2T6 whole entry): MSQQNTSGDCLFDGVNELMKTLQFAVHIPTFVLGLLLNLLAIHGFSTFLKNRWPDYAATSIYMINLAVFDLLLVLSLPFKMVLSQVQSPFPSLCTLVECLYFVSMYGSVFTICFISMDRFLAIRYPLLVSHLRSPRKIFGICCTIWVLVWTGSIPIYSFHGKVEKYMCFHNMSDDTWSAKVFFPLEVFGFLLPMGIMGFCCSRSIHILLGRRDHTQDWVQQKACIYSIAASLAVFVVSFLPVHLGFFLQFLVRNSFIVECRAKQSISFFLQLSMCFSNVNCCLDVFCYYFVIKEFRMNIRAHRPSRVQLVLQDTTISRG
Potassium voltage-gated channel subfamily KQT member 2, sequence (O88943 whole entry): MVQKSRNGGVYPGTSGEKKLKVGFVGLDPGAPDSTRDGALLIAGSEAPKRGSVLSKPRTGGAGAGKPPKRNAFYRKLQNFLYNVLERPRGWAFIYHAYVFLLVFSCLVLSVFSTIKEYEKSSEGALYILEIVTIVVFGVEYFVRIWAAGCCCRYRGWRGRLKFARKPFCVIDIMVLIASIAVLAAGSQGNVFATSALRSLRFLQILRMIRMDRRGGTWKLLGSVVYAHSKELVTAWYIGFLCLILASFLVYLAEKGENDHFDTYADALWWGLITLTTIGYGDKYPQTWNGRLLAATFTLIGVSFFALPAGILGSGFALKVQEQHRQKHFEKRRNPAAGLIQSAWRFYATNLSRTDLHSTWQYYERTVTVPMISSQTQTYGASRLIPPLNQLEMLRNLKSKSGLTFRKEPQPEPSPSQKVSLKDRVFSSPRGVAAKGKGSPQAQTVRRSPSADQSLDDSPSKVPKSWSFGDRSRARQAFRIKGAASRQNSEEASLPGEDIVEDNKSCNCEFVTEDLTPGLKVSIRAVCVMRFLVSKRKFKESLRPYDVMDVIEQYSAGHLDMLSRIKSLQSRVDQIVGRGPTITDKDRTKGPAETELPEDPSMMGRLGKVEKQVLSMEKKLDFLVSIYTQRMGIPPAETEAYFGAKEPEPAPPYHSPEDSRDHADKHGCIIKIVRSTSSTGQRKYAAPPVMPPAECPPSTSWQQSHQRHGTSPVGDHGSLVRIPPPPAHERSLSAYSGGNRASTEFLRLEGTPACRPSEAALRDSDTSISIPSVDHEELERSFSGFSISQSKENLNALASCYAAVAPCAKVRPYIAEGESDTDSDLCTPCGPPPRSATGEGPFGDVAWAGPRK
Nonstructural protein 1, sequence (Q194T2 whole entry): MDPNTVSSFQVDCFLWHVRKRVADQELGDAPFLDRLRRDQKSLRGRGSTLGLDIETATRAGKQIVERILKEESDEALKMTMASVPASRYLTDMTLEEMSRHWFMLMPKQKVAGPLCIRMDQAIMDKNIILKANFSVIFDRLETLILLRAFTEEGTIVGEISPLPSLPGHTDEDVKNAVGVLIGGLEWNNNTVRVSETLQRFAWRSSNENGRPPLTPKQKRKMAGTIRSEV
26S proteasome non-ATPase regulatory subunit 14, sequence (O00487 whole entry): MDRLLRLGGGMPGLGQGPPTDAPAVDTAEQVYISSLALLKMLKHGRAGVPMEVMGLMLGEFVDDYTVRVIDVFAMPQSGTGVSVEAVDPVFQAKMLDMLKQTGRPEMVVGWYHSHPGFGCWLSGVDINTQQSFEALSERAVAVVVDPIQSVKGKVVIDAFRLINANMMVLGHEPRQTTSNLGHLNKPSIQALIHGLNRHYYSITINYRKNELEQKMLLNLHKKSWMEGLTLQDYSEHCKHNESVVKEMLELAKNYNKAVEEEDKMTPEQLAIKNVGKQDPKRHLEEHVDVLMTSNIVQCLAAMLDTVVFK

CCOC(=O)COn1c2c(c3c4no[n+]([O-])c4ccc31)CCCC2
IC50 (cells [1]): 5.49 µM (active)
CC50 [2]: > 100 µM (active)

Cc1[nH]c(=O)[nH]c1C(=O)CCCCC(=O)O
IC50 [3]: 0.0174 µM (active)
IC50 (Nonstructural protein 1): 2.14 µM (active)
EC50 (Insulin-degrading enzyme [4]): 12.2 µM (inactive)
AC50 [5]: 10.2 µM (active)
EC50 (Insulin-degrading enzyme [6]): 16.9 µM (inactive)

COc1ccc(Cl)cc1C(=O)NC(=S)Nc1ccccc1N1CCOCC1
IC50 [7]: 5.98 µM (active)
IC50 [8]: 0.825 µM (active)

Cc1cc(C)c2c(N)c3cccc(C)c3nc2n1
IC50 [9]: 13.1 µM (active)
AC50 [10]: 3.21 µM (active)
IC50 (Prothrombin): > 100 µM (inactive)
EC50 (HEK293 [11]): > 2.21 µM (active)
AC50 [12]: 2.24 µM (active)
IC50 [13]: > 99 µM (inactive)
EC50 (HEK293 [14]): > 59.6 µM (inactive)
EC50 [15]: > 67.5 µM (inactive)
EC50 [16]: 1.27 µM (active)
AC50 (INS1): 1.62 µM (active)
EC50 (cells [17]): > 67.5 µM (inactive)
AC50 (A-375): 3.39 µM (active)
IC50 [18]: > 100 µM (inactive)

CCCC(=O)Nc1cccc(NC(=O)c2ccc(C)c([N+](=O)[O-])c2)c1
AC50 [19]: 1.96 µM (active)

Oc1c(/C=N/c2ccc(Cl)cc2)cnn1-c1cccc(Cl)n1
IC50 [20]: 15.4 µM (active)
IC50 [21]: 17.1 µM (active)
